Tests used:
full length human TREX1 = molecular target: T1, full length human TREX1 (Homo sapiens, UniProt Q9NSU2); experiment: hTREX1 Biochemical Assay (fluorescence, dsDNA substrate degradation); details: biochemical, read-out: hTREX1 IC50
T1 construct: N-terminally His-Tev tagged full length human TREX1; made in house; host or cells: E. coli
T1 sequence (Q9NSU2 1-314): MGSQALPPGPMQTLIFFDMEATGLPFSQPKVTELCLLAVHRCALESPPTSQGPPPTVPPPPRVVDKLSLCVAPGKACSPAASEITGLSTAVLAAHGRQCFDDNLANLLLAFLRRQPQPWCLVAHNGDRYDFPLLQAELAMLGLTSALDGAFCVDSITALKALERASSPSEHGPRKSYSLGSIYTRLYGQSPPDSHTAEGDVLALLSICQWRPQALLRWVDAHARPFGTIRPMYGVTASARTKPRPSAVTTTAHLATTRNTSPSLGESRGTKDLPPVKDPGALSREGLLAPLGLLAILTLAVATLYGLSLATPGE
Outline: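 Cleavage of 60 nM TEX615/quencher-labelled dsDNA in pH 7.4 Tris buffer with 5 mM MgCl2, 1.0% DMSO, run 18 hours at 25° C, EDTA-quenched; fluorescence read-out.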

full length mouse TREX1 = molecular target: T2, full length mouse TREX1 (Mus musculus, UniProt Q91XB0); experiment: mTREX1 Biochemical Assay (fluorescence, dsDNA substrate degradation); details: biochemical, read-out: mTREX1 IC50
T2 construct: N-terminally His-Tev tagged full length mouse TREX1; made in house; host or cells: E. coli
T2 sequence (Q91XB0 1-314): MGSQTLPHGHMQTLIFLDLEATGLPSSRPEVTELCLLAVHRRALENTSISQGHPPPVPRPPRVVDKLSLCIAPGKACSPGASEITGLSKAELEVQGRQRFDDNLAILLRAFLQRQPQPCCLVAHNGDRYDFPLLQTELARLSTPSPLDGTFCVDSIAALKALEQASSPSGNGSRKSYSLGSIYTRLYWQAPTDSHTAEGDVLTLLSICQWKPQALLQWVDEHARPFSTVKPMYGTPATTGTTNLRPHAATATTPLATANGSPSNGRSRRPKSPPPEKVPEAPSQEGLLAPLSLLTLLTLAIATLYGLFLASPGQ
Outline: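 Reaction run 18 h at 25° C. with 60 nM TEX615/quencher-labelled dsDNA and 6 pM mouse TREX1 in Tris buffer (pH 7.4, 5 mM MgCl2, 1.0% DMSO), enzyme having sat 4 h with compound across 10 concentrations. EDTA quench; substrate degradation measured as fluorescence increase.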

hTREX1 = molecular target: T3, hTREX1 (Homo sapiens, UniProt Q9NSU2); experiment: hTREX1 HCT116 Cell Assay (HCT116 dual cells, Lucia luciferase reporter of Type I interferon induction); assay type: cell-based; details: TREX1i 4 h before pBR322/BstNI transfection, read after 48 h
T3 construct: host or cells: HCT116 dual cells
T3 sequence (Q9NSU2 1-314): T1 sequence (Q9NSU2 1-314)
Description: HCT116 dual cells (Invivogen, San Diego, CA, USA) are derived from the human HCT116 colorectal carcinoma cell line. Cells have been selected for the stable integration of SEAP and Luciferase reporter genes, which expression is under the control of 5 tandem response elements for NF-KB/AP1 and STAT1/STAT2, respectively. The cell line was used to monitor Type I interferon induction and subsequent signaling by measuring the activity of the Lucia luciferase secreted in the culture medium.
HCT116 cells were plated in 96-well plate(s) at 40,000 cells/well in 100 uL DMEM supplemented with 10% FBS and 25 mM Hepes (pH 7.2-7.5). After overnight settling, cells were treated with TREX1i for 4 h (maximum DMSO fraction was 0.1%) before 1 ug/mL pBR322/BstNI restriction digest (New England Biolabs, Ipswich, MA, USA) was transfected with Lipofectamine LTX (ThermoFisher, Grand Island, NY, USA), according to product manual recommendations. Briefly, Lipofectamine LTX (0.35 uL/well) was diluted in OptiMEM (5 uL/well). pBR322/BstNI (100 ng/well) was diluted in OptiMEM (5 uL/well) before Plus reagent (0.1 uL/100 ng DNA) was added. After 5 min incubation at room temperature, the DNA mixture was mixed dropwise with the diluted Lipofectamine LTX. After an additional 10 min incubation, the transfection mix (10 uL/well) was added to the cells. Cells were maintained at 37 C for 48 h before monitoring the Lucia Luciferase activity from the cell culture medium.

[1] = molecular target: T4, human TREX2 (residues M44-A279) (Homo sapiens, UniProt Q9BQ50); experiment: hTREX2 Biochemical Assay (fluorescence, dsDNA substrate degradation); details: biochemical selectivity for hTREX1 vs hTREX2
T4 construct: human TREX2 (residues M44-A279, expressed in E. coli); made in house; host or cells: E. coli
T4 sequence (Q9BQ50 44-279 isoform Q9BQ50-1): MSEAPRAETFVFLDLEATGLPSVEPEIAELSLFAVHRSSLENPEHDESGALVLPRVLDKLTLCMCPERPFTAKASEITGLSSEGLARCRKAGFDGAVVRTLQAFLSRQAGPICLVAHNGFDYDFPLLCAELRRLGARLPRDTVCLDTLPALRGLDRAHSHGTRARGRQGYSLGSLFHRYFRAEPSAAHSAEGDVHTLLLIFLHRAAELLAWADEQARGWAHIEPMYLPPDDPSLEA
Outline: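 N-His-Tev E. coli enzyme (50 pM) pre-incubated with compound 4 h at 25 °C, then 60 nM TEX615/quencher dsDNA added; 18 h at 25 °C, pH 7.4 Tris buffer with 5 mM MgCl2, 1.0% DMSO. EDTA-quenched; fluorescence 570 ex/615 em from liberated fluorophore, 10-point dose-response.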

Row | IC50 (full length human TREX1) | IC50 (full length mouse TREX1) | IC50 (hTREX1) | Structure (SMILES) | hTREX1 vs hTREX2 selectivity [1]
1 | > 10 nM | > 10 nM | > 100 nM | CC(c1nc(C(=O)Nc2cnoc2)c(O)c(=O)n1C)C(c1ccccc1C#N)c1c(C#N)cnn1C (single isomer, unassigned) [Example 52 D2E1] | –
2 | < 1 nM | < 1 nM | < 10 nM | CCn1ncc(C(c2ccc(F)cc2C#N)C(C)c2nc(C(=O)Nc3cnoc3)c(O)c(=O)n2C)c1C (single isomer, unassigned) [Example 65 D1E1] | –
3 | 1 to 10 nM | > 10 nM | > 100 nM | CC(c1nc(C(=O)Nc2cnoc2)c(O)c(=O)n1C)C(c1cocn1)c1ccccc1C#N (single isomer, unassigned) [Example 50 D1E1] | –
4 | 1 to 10 nM | > 10 nM | 10 to 100 nM | CC(c1nc(C(=O)Nc2cnoc2)c(O)c(=O)n1C)C(c1ccccc1C#N)c1cn(C)nc1C#N (single isomer, unassigned) [Example 10 D1E2] | –
5 | 1 to 10 nM | > 10 nM | > 100 nM | CC(c1nc(C(=O)Nc2cnoc2)c(O)c(=O)n1C)C(c1cnn(C)c1)c1cccnc1C#N (single isomer, unassigned) [Example 7 D1E1] | –
6 | 1 to 10 nM | > 10 nM | 10 to 100 nM | CC(c1nc(C(=O)Nc2cnoc2)c(O)c(=O)n1C)C(c1ncn(C)n1)c1ccccc1C#N (single isomer, unassigned) [Example 51 D1E2] | –
7 | 1 to 10 nM | > 10 nM | 10 to 100 nM | Cc1nn(C)c(C)c1C(c1ccccc1C#N)C(C)c1nc(C(=O)Nc2cnoc2)c(O)c(=O)n1C (single isomer, unassigned) [Example 78 D2E1] | –
8 | 1 to 10 nM | > 10 nM | > 100 nM | Cc1nn(C)cc1C(c1ccccc1C#N)C(C)c1nc(C(=O)Nc2cnoc2)c(O)c(=O)n1C (single isomer, unassigned) [Example 3 D2E2] | –
9 | < 1 nM | 1 to 10 nM | > 100 nM | CC(c1nc(C(=O)Nc2cnoc2)c(O)c(=O)n1C)C(c1cnn(CCN2CCNCC2)c1)c1ccccc1C#N (single isomer, unassigned) [Example 31 D1E1] | –
10 | 1 to 10 nM | > 10 nM | > 100 nM | Cc1ccc(C(c2ccccc2C#N)C(C)c2nc(C(=O)Nc3cnoc3)c(O)c(=O)n2C)cn1 (single isomer, unassigned) [Example 5 D2E2] | –
11 | 1 to 10 nM | > 10 nM | > 100 nM | Cc1cc(C(c2ccccc2C#N)C(C)c2nc(C(=O)Nc3cnoc3)c(O)c(=O)n2C)ccn1 (single isomer, unassigned) [Example 6 D2E2] | –
12 | < 1 nM | 1 to 10 nM | > 100 nM | CC(c1nc(C(=O)Nc2cnoc2)c(O)c(=O)n1C)C(c1cnn(CCCN(C)C)c1)c1ccccc1C#N (single isomer, unassigned) [Example 34 D1E1] | –
13 | 1 to 10 nM | > 10 nM | 10 to 100 nM | CC(c1nc(C(=O)Nc2cnoc2)c(O)c(=O)n1C)C(c1ccccc1C#N)c1c(C#N)cnn1C (single isomer, unassigned) [Example 52 D1E1] | –
14 | < 1 nM | 1 to 10 nM | < 10 nM | CC(c1nc(C(=O)Nc2cnoc2)c(O)c(=O)n1C)C(c1cnn(C)c1)c1c(C#N)cccc1C#N (single isomer, unassigned) [Example 19 D1E2] | –
15 | < 1 nM | 1 to 10 nM | 10 to 100 nM | Cc1c(C(c2ccccc2C#N)C(C)c2nc(C(=O)Nc3cnoc3)c(O)c(=O)n2C)cnn1C (single isomer, unassigned) [Example 4 D1E1] | –
16 | < 1 nM | 1 to 10 nM | 10 to 100 nM | CC(c1nc(C(=O)Nc2cnoc2)c(O)c(=O)n1C)C(c1cnn(C)c1)c1ccncc1C#N (single isomer, unassigned) [Example 8 D1E2] | –
17 | < 1 nM | 1 to 10 nM | < 10 nM | CC(c1nc(C(=O)Nc2cnoc2)c(O)c(=O)n1C)C(c1cnn(C)c1)c1cc(F)ccc1Cl (single isomer, unassigned) [Example 61 D1E1] | –
18 | 1 to 10 nM | > 10 nM | > 100 nM | CC(c1nc(C(=O)Nc2cnoc2)c(O)c(=O)n1C)C(c1cnn(C)c1)c1ccncc1C#N (single isomer, unassigned) [Example 8 D2E2] | –
19 | 1 to 10 nM | > 10 nM | > 100 nM | CC(c1nc(C(=O)Nc2cnoc2)c(O)c(=O)n1C)C(c1cnn(C(F)F)c1)c1ccccc1C#N (single isomer, unassigned) [Example 38 D2E2] | –
20 | < 1 nM | < 1 nM | < 10 nM | CCn1ncc(C(c2ccccc2C#N)C(C)c2nc(C(=O)Nc3cnoc3)c(O)c(=O)n2C)c1C (single isomer, unassigned) [Example 68 D1E1] | –
21 | < 1 nM | 1 to 10 nM | > 100 nM | COCCn1cc(C(c2cc(F)ccc2C#N)C(C)c2nc(C(=O)Nc3cnoc3)c(O)c(=O)n2C)cn1 (single isomer, unassigned) [Example 18 D1E2] | –
22 | < 1 nM | 1 to 10 nM | > 100 nM | CC(c1nc(C(=O)Nc2cnoc2)c(O)c(=O)n1C)C(c1cnn(CCN2CCN(C)CC2)c1)c1ccccc1C#N (single isomer, unassigned) [Example 32 D1E1] | –
23 | < 1 nM | 1 to 10 nM | < 10 nM | Cc1nn(C)cc1C(c1cc(F)ccc1Cl)C(C)c1nc(C(=O)Nc2cnoc2)c(O)c(=O)n1C (single isomer, unassigned) [Example 62 D2E2] | –
24 | < 1 nM | 1 to 10 nM | > 100 nM | CC(c1nc(C(=O)Nc2cnoc2)c(O)c(=O)n1C)C(c1cnn(CC(C)(C)O)c1)c1ccccc1C#N (single isomer, unassigned) [Example 36 D1E1] | –
25 | < 1 nM | 1 to 10 nM | 10 to 100 nM | COC(C)(C)Cn1cc(C(c2ccccc2C#N)C(C)c2nc(C(=O)Nc3cnoc3)c(O)c(=O)n2C)cn1 (single isomer, unassigned) [Example 37 D1E1] | –
26 | < 1 nM | 1 to 10 nM | 10 to 100 nM | CC(c1nc(C(=O)Nc2cnoc2)c(O)c(=O)n1C)C(c1cnn(C)c1)c1cc(F)c(F)cc1Cl (single isomer, unassigned) [Example 28 D1E1] | –
27 | – | – | < 10 nM | Cc1cnc(C)c(C(c2cc(F)ccc2C#N)C(C)c2nc(C(=O)Nc3cnoc3)c(O)c(=O)n2C)n1 (single isomer, unassigned) [Example 119 D1E1] | –
28 | > 10 nM | > 10 nM | – | CC(c1nc(C(=O)Nc2cnoc2)c(O)c(=O)n1C)C(c1ccccc1C#N)c1ccnn1C (single isomer, unassigned) [Example 1 D2E2] | B (B = 25 to 50-fold selective for hTREX1)

— patent publication US20240246946A1, “MODULATORS OF TREX1” (Constellation Pharmaceuticals, Inc., priority 2021, published 2024)
